Test systems include A498 renal; CCRF-CEM leukemia; DU-145 prostate; HCT-15 colon; HL-60(TB) leukemia; HOP-62 NSCLC; HS 578T breast; MCF7 breast; RPMI-8226 leukemia; UO-31 renal.
Holding throughout (test): growth of human tumour cells (NCI), 48 h

“And” between values parts separate entries of the source, which are not always exact repeats. Equal values may be shown once.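 Growth conditions: 96-well plates. Treatment: test compound, 48 hours, 5 concentrations. Analysis: linear interpolation between bracketing concentrations; unreached endpoints set to highest concentration. At the GI50, growth is halved. TGI denotes the concentration required for complete inhibition of growth.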

Consider `FC(F)(F)c1ccc(NCc2nc3ccccc3[nH]2)cc1`, for which the GI50 is 12.4 µM in the test on A498 renal; 32.5 µM with CCRF-CEM leukemia; 47.9 µM in the test on DU-145 prostate; 32.7 µM in the test on HCT-15 colon; 12.1 µM with HL-60(TB) leukemia; 28.8 µM in the test on HOP-62 NSCLC. The GI50 in the test with HS 578T breast was 23.3 µM; in the test with MCF7 breast, 21.5 µM; in the test on RPMI-8226 leukemia, 20.7 µM; with UO-31 renal it was 30.4 µM. The TGI in the test with A498 renal was 46.2 µM; with CCRF-CEM leukemia, more than 100 µM; in the test on DU-145 prostate, more than 100 µM; in the test on HCT-15 colon it was more than 100 µM; in the test on HL-60(TB) leukemia, 38.5 µM; in the test with HOP-62 NSCLC, 96.4 µM. The TGI with HS 578T breast was 79 µM; with MCF7 breast, 53.2 µM; in the test with RPMI-8226 leukemia it was 67.8 µM; in the test on UO-31 renal, more than 100 µM.
For the compound `O=C(c1ccco1)c1c(C(F)(F)F)n([O-])c2ccc(F)cc2[n+]1=O`, the GI50 in the test on A498 renal was 8.53 µM; in the test on CCRF-CEM leukemia it was 0.4 µM; in the test on DU-145 prostate it was 2.24 µM; in the test on HCT-15 colon, 0.219 µM; in the test with HL-60(TB) leukemia it was 0.186 µM; in the test with HOP-62 NSCLC it was 3 µM. In addition, the GI50 was 1.84 µM in the test on HS 578T breast, 0.258 µM in the test on MCF7 breast, 0.18 µM with RPMI-8226 leukemia and 1.6 µM with UO-31 renal. Further, the TGI with A498 renal is 24.3 µM; with CCRF-CEM leukemia, 2.97 µM; in the test on DU-145 prostate, 7.04 µM; with HCT-15 colon, 0.855 µM; in the test with HL-60(TB) leukemia, 0.452 µM; with HOP-62 NSCLC, 13.7 µM. Further, the TGI in the test with HS 578T breast is 7.08 µM; in the test with MCF7 breast, 1.89 µM; in the test on RPMI-8226 leukemia, 0.573 µM; in the test on UO-31 renal, 3 µM.
With `COc1cc(/C=C/c2ccccn2)cc(OC)c1OC`, the TGI in the test on A498 renal, in the test on CCRF-CEM leukemia, in the test on DU-145 prostate, in the test on HCT-15 colon, with HL-60(TB) leukemia and in the test on HOP-62 NSCLC was more than 10 µM in each case. In addition, the TGI in the test with HS 578T breast, with MCF7 breast, in the test with RPMI-8226 leukemia and with UO-31 renal was more than 10 µM in each case.
Turning to `Cc1cc(C#Cc2ccccc2)ccc1-n1c(/C=C/c2cc(O)ccc2O)nc2ccccc2c1=O`, the GI50 was 0.37 µM in the test on A498 renal; 1.54 µM with CCRF-CEM leukemia; 0.419 µM in the test with DU-145 prostate; 1.03 µM in the test with HCT-15 colon; 1.71 µM with HOP-62 NSCLC; 1.54 µM in the test on HS 578T breast. The values for the GI50 with MCF7 breast, in the test on RPMI-8226 leukemia and in the test with UO-31 renal were 1.45 µM, 1.26 µM and 1.16 µM, respectively. The TGI with A498 renal stood at 2.63 µM; in the test with CCRF-CEM leukemia it was 7.13 µM; in the test with DU-145 prostate, 1.62 µM; in the test on HCT-15 colon, 2.21 µM; in the test on HOP-62 NSCLC, 3.79 µM; with HS 578T breast it was 7.95 µM. In addition, the TGI in the test on MCF7 breast was found to be 2.87 µM; in the test with RPMI-8226 leukemia, 6.08 µM; with UO-31 renal it was 3.1 µM.
For the compound `COc1cccc(/C=C\c2ccnc3ccccc23)c1`, the TGI with A498 renal, with CCRF-CEM leukemia, in the test on DU-145 prostate, in the test on HCT-15 colon, in the test on HL-60(TB) leukemia and with HOP-62 NSCLC was more than 10 µM each time. The TGI with HS 578T breast, in the test on MCF7 breast, with RPMI-8226 leukemia and in the test on UO-31 renal was more than 10 µM throughout.
For `Nc1ccc(C(=O)Nc2ccccc2N)cc1`, the TGI is more than 100 µM with A498 renal; more than 82 µM with CCRF-CEM leukemia; more than 100 µM in the test with DU-145 prostate; more than 100 µM in the test with HCT-15 colon; 17.6 µM with HL-60(TB) leukemia; more than 100 µM in the test with HOP-62 NSCLC. Moreover, the TGI in the test with HS 578T breast is more than 100 µM; in the test with MCF7 breast it was more than 100 µM; in the test with RPMI-8226 leukemia it was 98.8 µM; in the test with UO-31 renal it was more than 100 µM.
For the compound `CC(C)[C@H](C(=O)O[C@@H]1/C=C/C(=O)O[C@@H](C)CCC/C=C/[C@@H]2C[C@H](O)C[C@H]21)N(C)C`, the GI50 with A498 renal was 2.08 µM; in the test with CCRF-CEM leukemia, 6.05 µM; in the test with DU-145 prostate, 31.5 µM; with HCT-15 colon, 14.1 µM; in the test on HL-60(TB) leukemia, 28.2 µM; in the test on HOP-62 NSCLC it was 17.2 µM. The GI50 with HS 578T breast is 2.2 µM; in the test with MCF7 breast, 6.65 µM; in the test on RPMI-8226 leukemia it was 8.12 µM; with UO-31 renal, 15 µM. Moreover, the TGI in the test on A498 renal was 6.62 µM; in the test on CCRF-CEM leukemia, 75 µM; with DU-145 prostate, more than 100 µM; in the test with HCT-15 colon, 34.5 µM; in the test with HL-60(TB) leukemia, 50.7 µM; in the test with HOP-62 NSCLC, more than 100 µM. For the same compound, the TGI in the test on HS 578T breast was 45.9 µM; with MCF7 breast, 28.1 µM; in the test with RPMI-8226 leukemia, 36.8 µM; with UO-31 renal, more than 83.7 µM.
Consider `CCN(CCO)CCCOc1ccc2c(Nc3cc(CC(=O)Nc4cccc(F)c4)[nH]n3)ncnc2c1`, for which the GI50 was more than 49.1 µM with A498 renal; < 0.01 µM and 0.0047 µM in the test on CCRF-CEM leukemia; 34.5 µM in the test with DU-145 prostate; more than 100 µM in the test with HCT-15 colon; 13 µM in the test with HL-60(TB) leukemia; 16.3 µM in the test on HOP-62 NSCLC. The GI50 in the test with HS 578T breast was 8.15 µM; in the test on RPMI-8226 leukemia it was 15.4 µM; in the test with UO-31 renal it was more than 100 µM. Besides, the TGI with A498 renal is more than 100 µM; with CCRF-CEM leukemia, 47.9 µM and > 5.1 µM; in the test on DU-145 prostate, more than 100 µM; in the test on HCT-15 colon, more than 100 µM; with HL-60(TB) leukemia, 40.4 µM; with HOP-62 NSCLC, more than 88.6 µM. Besides, the TGI in the test on HS 578T breast was more than 60.5 µM; in the test with MCF7 breast, 22.5 µM and > 4.11 µM; in the test on RPMI-8226 leukemia, 47.8 µM and > 2.17 µM; with UO-31 renal it was more than 100 µM.
In the case of `C[C@H](c1ccccc1)N(CCC(=O)O)C(=O)CCN(C(=O)CCN(C(=O)CCN[C@H](C)c1ccccc1)[C@H](C)c1ccccc1)[C@H](C)c1ccccc1`, the GI50 in the test with A498 renal, with CCRF-CEM leukemia, in the test on DU-145 prostate, with HCT-15 colon, in the test on HL-60(TB) leukemia and in the test with HOP-62 NSCLC was more than 100 µM each time. Also, the GI50 with HS 578T breast was more than 100 µM; with MCF7 breast, more than 100 µM; with RPMI-8226 leukemia, 58.4 µM; in the test with UO-31 renal, more than 100 µM. For the same compound, the TGI with A498 renal, with CCRF-CEM leukemia, in the test with DU-145 prostate, in the test with HCT-15 colon, with HL-60(TB) leukemia and with HOP-62 NSCLC was more than 100 µM each time. Moreover, the TGI in the test on HS 578T breast, in the test with MCF7 breast, in the test on RPMI-8226 leukemia and with UO-31 renal was more than 100 µM each time.
